What was measured:
[1] = mice and humans, literature; cited from earlier work
[2] = test system: E. multilocularis metacestodes; assay: Secondary infection with E. multilocularis metacestodes, chemotherapy starting at the timepoint of infection (Example 1); format: in vivo, Echinococcus multilocularis; details: Balb/c mice, i.p. 20 metacestodes; daily intragastric treatment from day of infection for 35 days; necropsy day 36; CMC group 0.23±0.05 g
Experimental: (§1) E. multilocularis metacestodes (isolate IM280) were maintained by serial transplantation passages through intraperitoneal (i.p.) injection in gerbils (Meriones unguiculatus). Animals were sacrificed at four to ten weeks p.i, and the parasite material was removed from the peritoneal cavity under aseptic conditions, placed into Hanks balanced salt solution (HBSS), and washed several times. Vesicle suspensions were prepared as described in Hemphill, A., and B. Gottstein. 1995. Immunology and morphology studies on the proliferation of in vitro cultivated Echinococcus multilocularis metacestodes. Parasitol. Res. 81: 605-614. Vesicles were washed once in HBSS, and the number of intact metacestodes in 50 ml HBSS was determined microscopically. The metacestode suspension was adjusted to 20 intact vesicles/100 ml HBSS, and was used for infection experiments immediately.
Six week old Balb/c mice were housed in a temperature-controlled light-cycle room with food and water ad libitum. The mice were separated into experimental groups of 10 animals each. Drug suspensions (30 mg/ml NTZ, 10 mg/ml ABZ, and 30 mg NTZ plus 10 mg ABZ/ml, respectively) were prepared in carboxymethylcellulose (CMC) 0.5% (w/v) in water. […]
(§2) For assessments of secondary infections, parasite tissue was carefully removed from the peritoneal cavity, and the parasite weight was determined as described in: Dai, W. J., and B. Gottstein. […]

[3] = Single-dose pharmacokinetic study, serum levels of TIZ, TIZ-gluc and ABZSO (Example 4); format: in vivo; details: non-infected Balb/c mice; single dose 1 mg ABZ or 3 mg/1 mg NTZ/ABZ
Experimental: A total of 120 6-week old non-infected Balb/c mice were divided into three treatment groups: group 1 (NTZ—30 mice), group 2 (ABZ—30 mice), group 3 (NTZ/ABZ—60 mice). They received a single dose of 3 mg NTZ (group 1), 1 mg ABZ (group 2) and 3 mg/1 mg of NTZ/ABZ (group 3) in a volume of 100 μl suspended in 0.5% CMC. At defined time points following inoculation, (0, 1, 2, 4, 6, 8, 12, 24 and 48 h), blood samples were obtained from three mice/group, and blood levels of tizoxanide (TIZ), tizoxanide-glucuronide (TIZ-gluc) and ABZSO were assayed.
TIZ and Tiz-gluc were extracted from mouse serum samples using protein precipitation with acetonitrile. The supernatant was evaporated and reconstituted in injection solvent before injection. Chromatographic separation was achieved on a C18 column (5 pm 70×2 mm). Detection was by a mass spectrometer with an ion spray ionization source. Negative ions were detected in multiple reaction monitoring mode (Q1=264 m/z and Q3=216.9 m/z for TIZ, and Q1=439.9 m/z and Q3=263.9 m/z for TIZ-gluc). The lower limits of quantitation were 0.05 μg/ml and 0.2 μg/ml for TIZ and TIZ-gluc, respectively. […]

[4] = test system: E. multilocularis metacestode tissue; assay: Histology and transmission electron microscopy of metacestode tissue from treated mice (Example 5); format: in vivo, Echinococcus multilocularis; details: for Ultrastructural alterations of metacestode tissue (TEM): tissue from treated infected mice vs CMC-control; for Histology of metacestode tissue: tissue from treated infected mice vs control
Experimental: For histological and transmission electron microscopy (TEM) analysis, tissue samples were fixed in 3% paraformaldehyde/1% glutaraldehyde in 100 mM sodium cacodylate buffer (pH 7.2) for 24 h at 4° C., and postfixed in 2% OsO4 in cacodylate buffer for 4 h at room temperature. The samples were then processed and embedded in Epon 812 epoxy resin as described previously in: Hemphill, A., and S. L. Croft. 1997. Electron microscopy in Parasitology. In: p. 227-268. M. Rogan (ed), Analytical Parasitology, Springer Verlag, Heidelberg. Sections of […] in thickness were used for histological examination, and ultrathin sections 80-100 nm for transmission electron microscopy. Sections were loaded onto 300-mesh copper grids, and were contrasted with uranyl acetate and lead citrate as described previously in: Hemphill, A., and S. L. Croft. 1997. Electron microscopy in Parasitology. In: p. 227-268. M. Rogan (ed), Analytical Parasitology, Springer Verlag, Heidelberg. Specimens were viewed on a Phillips 300 transmission electron microscope operating at 60 kV.
Because it was not possible to investigate alterations of the actual parasite tissue on the germinal layer using histology, transmission electron microscopy was performed on sections obtained from the same tissue blocks. For evaluating the ultrastructural changes occurring during drug treatments, it is important to note that the process of tissue damage was not uniform, as it progressed at different rates in different metacestode vesicles. However, within a single metacestode, damage was rather homogenous. Therefore, a large number of different metacestodes, and as a consequence, different areas of a tissue block, were investigated in order to show a complete picture of the tissue alterations induced by ABZ, NTZ, and NTZ/ABZ-treatments.

[5] = test system: E. multilocularis metacestodes; assay: Secondary infection with E. multilocularis metacestodes, chemotherapy starting at two months post infection (Example 2); format: in vivo, Echinococcus multilocularis; details: Balb/c mice; treatment initiated 2 months p.i., daily for 35 days; vs CMC control (4.3±0.9 g)
Experimental: as §1, with “The metacestode suspension was adjusted to 20 intact vesicles/100 ml HBSS, and was used for infection experiments immediately.” left out
as §2
(§3) For serological and lymphocyte proliferation assays, blood was taken from euthanized mice by heart puncture, and total IgG-, as well as IgG1- and IgG2a-isotype levels against crude E. multilocularis extract (Faub-antigen) and vesicle fluid antigen, were determined according to: Dai, W. J., A. Hemphill, A. Waldvogel, K. Ingold, P. Deplazes, H. Mossmann, and B. Gottstein. […]

E. multilocularis eggs = assay: Primary infection with E. multilocularis eggs, chemotherapy starting at two months post infection (Example 3); format: in vivo, Echinococcus multilocularis; details: Balb/c mice, 2000 eggs intragastric; NTZ from 2 months p.i., daily for 35 days; infection control 5 lesions/mouse
From the text: Infective E. multilocularis eggs were isolated from fox intestinal tissue as described (Pater, C., V. Muller, S. Harraga, M. Liance, V. Godot, J. P. Carbillet, D. Meillet, T. Romig, and D. A. Vuitton. 1998). Intestinal and systemic humoral immunological events in the susceptible Balb/C mouse strain after oral administration of Echinococcus multilocularis eggs. Parasite Immunol. 20: 623-9). The infectivity of this batch of eggs was pre-determined by titration-infection experiments in mice, and an infection dose of 2000 eggs was used.
Six week old Balb/c mice were housed in a temperature-controlled light-cycle room with food and water ad libitum. The mice were separated into experimental groups of 10 animals each. […]
For analysis of primary infection, the entire liver was removed, and lesion numbers were determined as described: Siles-Lucas, M., M. Merli, U. Mackenstedt and B. Gottstein 2003. […]
as §3

[6] = Oral absorption of NTZ (general statement)
[7] = Solubility of NTZ in solvents; format: physicochemical

Structure (SMILES)	Time after which ABZSO disappears following ABZ uptake [1]	Parasite weight [2]	ABZSO serum concentration at 12 h [3]	Ultrastructural alterations of metacestode tissue (TEM) [4]	Histology of metacestode tissue [4]	Reduction in parasite weight (in words) [5]	Number of liver lesions (means) (E. multilocularis eggs)	Oral absorption [6]	solubility ([7]; DMSO, organic solvent or mixture)	Solubility in acetic acid ([7]; acetic acid)	Solubility in acetone ([7]; acetone)	Solubility in chloroform ([7]; chloroform)	Solubility in dioxane ([7]; dioxane)	Solubility in ethanol ([7]; ethanol)	Solubility in ether ([7]; ether)	Solubility in methyl benzene ([7]; methyl benzene)	Solubility in pyridine ([7]; pyridine)	Solubility in water ([7]; water)
CCCSc1ccc2nc(NC(=O)OC)[nH]c2c1 [ABZ]	≤ 10 h	0.08 ± 0.01 g	zero	parasite tissue was mostly reduced to only the tegument	limited destructive effect	significant reduction in parasite weight	–	–	–	–	–	–	–	–	–	–	–	–
CC(=O)Oc1ccccc1C(=O)Nc1ncc([N+](=O)[O-])s1 [NTZ, 2-(acetolyloxy)-N-(5-nitro-2-thiazolyl)benzamide]	–	0.17 ± 0.05 g	–	rather heterogeneous morphological features	limited destructive effect	not statistically significant	2.2 lesions/mouse	easily absorbed orally	≥ 2000 µg/mL	poorly soluble	fairly soluble	poorly soluble	fairly soluble	poorly soluble	very poorly soluble	very poorly soluble	easily soluble	very poorly soluble

Reference: patent US20050171169A1, “Combination chemotherapy for helminth infections” (priority 2004, published 2005)
